Reference: US10894054B2, “FXR agonist compositions for combination therapy” (Intercept Pharmaceuticals, Inc., priority 2015, dated 2021)

Assays:
DIO-NASH mice = experiment: Oral glucose tolerance test (OGTT); type: in vivo, male C57BL/6 mice; conditions: alone or combined, PO QD, DIO-NASH vehicle 1762 ± 45
Protocol: Blood samples were collected into 10 μL heparinized glass capillary tubes. The sample was immediately suspended in buffer (0.5 ml of glucose/lactate system solution (EKF-diagnostics, Germany) and analyzed for glucose on the test day using a BIOSEN c-Line glucose meter (EKF-diagnostics, Germany). For triglyceride and cholesterol content, 100 μl blood was collected into Lithium-Heparin tubes. Plasma was separated and samples were stored at 4° C. for one day prior to analysis.
In week 4 (LIRA and MET combinations) or week 6 (SIT combination) of treatment, an OGTT was performed in conscious free-moving animals. […] Animals were fasted for 4 h prior to test start (food removal from 6 AM to 10 AM). At t=0, mice received an oral bolus of glucose (2 g/kg) (200 mg/ml; Fresenius Kabi, Sweden) by oral gavage (10 ml/kg). Blood samples were collected from the tail vein (by snipping) and blood glucose was measured at time point 0, 15, 30, 60 and 120 minutes after the oral glucose administration. Mice were re-fed after the blood sampling and drug dosed as per usual.

[1] = tested on: HFD-induced rabbit model of MetS; conditions: cited from earlier work
[2] = high dose: OCA 30 mg/kg, MET 150 mg/kg
[3] = low dose: OCA 10 mg/kg, MET 50 mg/kg
[4] = HFD rabbits, in vivo OCA dosing

Row | SMILES | OGTT Blood Glucose AUC, Week 4 (DIO-NASH mice; [2]) [mmol·min/L] | OGTT Blood Glucose AUC, Week 4 (DIO-NASH mice; [3]) [mmol·min/L] | adipocyte size, hypoxia, and expression of perilipin and GLUT4 (SLC2A4) in VAT ([1]; HFD rabbits vs rabbits on a control diet, immunohistochemistry, Western blot, RT-PCR) | amount of visceral AT (VAT) [1, 4] | expression of steatosis and inflammation markers [1, 4] | insulin resistance and metabolic profile [1, 4]
1 | CN(C)C(=N)N=C(N)N [MET, metformin, reference compound] | 1480 ± 53 | 1698 ± 31 |  |  |  | 
2 | CC[C@H]1[C@@H](O)[C@@H]2[C@H](CC[C@]3(C)[C@@H]([C@H](C)CCC(=O)O)CC[C@@H]23)[C@@]2(C)CC[C@@H](O)C[C@@H]12 [OCA, 3α,7α-dihydroxy-6α-ethyl-5β-cholan-24-oic acid] | 1778 ± 88 | 1680 ± 71 | normalizes | marked reduction | normalizes | ameliorates insulin resistance and the metabolic profile
